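These data come from cells grown in 96-well plates and exposed to compound for 48 hours at five concentrations. Definition used: TGI = concentration required for complete inhibition of growth.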 Where a SMILES comes first, the peptide text is derived from it. Bridges are numbered along the chain shown (N, C = ends).
Experiments:
Test in all cases: inhibition of tumour cell growth, NCI panel, 48 h
[1] = tested on: SF-295 CNS
[2] = tested on: MDA-MB-231 breast
[3] = tested on: HOP-62 NSCLC
[4] = tested on: MDA-MB-435
[5] = tested on: SF-539 CNS
[6] = tested on: SK-MEL-2 melanoma
[7] = tested on: PC-3 prostate
[8] = tested on: NCI-H23 lung
[9] = tested on: ACHN renal
[10] = tested on: MDA-N
[11] = tested on: U251 CNS
[12] = tested on: 786-0 renal
[13] = tested on: EKVX NSCLC
[14] = tested on: SNB-75 CNS
[15] = tested on: IGROV1 ovarian
[16] = tested on: M14 melanoma
[17] = tested on: HCT-15 colon
[18] = tested on: HCC-2998 colon
[19] = tested on: OVCAR-8 ovarian
[20] = tested on: UACC-257 melanoma
[21] = tested on: OVCAR-3 ovarian
[22] = tested on: HCT-116 colon
[23] = tested on: UACC-62 melanoma
[24] = tested on: BT-549 breast
[25] = tested on: SN12C renal
[26] = tested on: LOX IMVI melanoma
[27] = tested on: OVCAR-5 ovarian
[28] = tested on: NCI-H460 lung
[29] = tested on: HS 578T breast
[30] = tested on: KM12 colon
[31] = tested on: SNB-19 CNS
[32] = tested on: COLO 205 colon
[33] = tested on: SK-MEL-5 melanoma
[34] = tested on: CAKI-1 renal
[35] = tested on: T-47D breast
[36] = tested on: HL-60(TB) leukemia
[37] = tested on: A549 NSCLC
[38] = tested on: UO-31 renal
[39] = tested on: TK-10 renal
[40] = tested on: OVCAR-4 ovarian
[41] = tested on: SK-MEL-28 melanoma
[42] = tested on: DU-145 prostate
[43] = tested on: HOP-92 NSCLC
[44] = tested on: NCI/ADR-RES ovarian
[45] = tested on: NCI-H522 lung
[46] = tested on: HT29 colon
[47] = tested on: MALME-3M melanoma
[48] = tested on: CCRF-CEM leukemia
[49] = tested on: A498 renal
[50] = tested on: SF-268 CNS
[51] = tested on: MCF7 breast
[52] = tested on: MOLT-4 leukemia
[53] = tested on: RXF 393 renal
[54] = tested on: NCI-H226 lung
[55] = tested on: SR leukemia
[56] = tested on: RPMI-8226 leukemia
[57] = tested on: K-562 leukemia
[58] = tested on: SK-OV-3 ovarian
[59] = tested on: SW-620 colon

CCC(C)C1NC(=O)C(CC(C)C)NC(=O)C(C(C)C)NC(=O)C2CSSCC(NC1=O)C(=O)N2 (stereo unspecified) (cyclo(CCVLI); disulfide 1-2; configuration not given here) showed a TGI [1] of 340 nM, a TGI [2] of 233 nM and a TGI [3] of 554 nM. The TGI [4] was 391 nM, the TGI [5] was 316 nM and the TGI [6] was 363 nM. The TGI [7] was 329 nM, the TGI [8] was 277 nM and the TGI [9] was 1820 nM. It also gave a TGI [10] of 339 nM, a TGI [11] of 149 nM and a TGI [12] of 315 nM. It also gave a TGI [13] of 452 nM, a TGI [14] of 238 nM and a TGI [15] of 309 nM. The TGI [16] was 1010 nM, the TGI [17] was 7120 nM and the TGI [18] was 216 nM. For the same molecule, the TGI [19] was 491 nM, the TGI [20] was 279 nM and the TGI [21] was 395 nM. For the same molecule, the TGI [22] was 187 nM, the TGI [23] was 228 nM and the TGI [24] was 369 nM. The TGI [25] was 351 nM, the TGI [26] was 239 nM and the TGI [27] was 381 nM. It also gave a TGI [28] of 260 nM, a TGI [29] of 271 nM and a TGI [30] of 223 nM. It also gave a TGI [31] of 344 nM, a TGI [32] of 223 nM and a TGI [33] of 293 nM. It also gave a TGI [34] of 5410 nM, a TGI [35] of 182 nM and a TGI [36] of 339 nM. It also gave a TGI [37] of 399 nM, a TGI [38] of 5840 nM and a TGI [39] of 1930 nM. For the same molecule, the TGI [40] was 362 nM, the TGI [41] was 269 nM and the TGI [42] was 301 nM. For the same molecule, the TGI [43] was 248 nM, the TGI [44] was greater than 100000 nM and the TGI [45] was 355 nM. For the same molecule, the TGI [46] was 356 nM.
Molecule S=C1C(CCCOCc2ccccc2)C2CCCC23CC2(CCN13)OCCS2 (stereo unspecified) has a TGI [47] greater than 10000 nM, a TGI [1] greater than 10000 nM and a TGI [2] greater than 10000 nM. For the same molecule, the TGI [48] was greater than 10000 nM, the TGI [3] was greater than 10000 nM and the TGI [4] was greater than 10000 nM. For the same molecule, the TGI [5] was greater than 10000 nM, the TGI [49] was greater than 10000 nM and the TGI [6] was greater than 10000 nM. The TGI [7] was greater than 10000 nM, the TGI [8] was greater than 10000 nM and the TGI [9] was greater than 10000 nM. The TGI [10] was greater than 10000 nM, the TGI [50] was greater than 10000 nM and the TGI [11] was greater than 10000 nM. It also gave a TGI [12] greater than 10000 nM, a TGI [13] greater than 10000 nM and a TGI [14] greater than 10000 nM. For the same molecule, the TGI [51] was greater than 10000 nM, the TGI [15] was greater than 10000 nM and the TGI [16] was greater than 10000 nM. The TGI [17] was greater than 10000 nM, the TGI [52] was greater than 10000 nM and the TGI [53] was greater than 10000 nM. The TGI [18] was greater than 10000 nM, the TGI [19] was greater than 10000 nM and the TGI [20] was greater than 10000 nM. It also gave a TGI [21] greater than 10000 nM, a TGI [54] greater than 10000 nM and a TGI [25] greater than 10000 nM. It also gave a TGI [26] greater than 10000 nM, a TGI [27] greater than 10000 nM and a TGI [28] greater than 10000 nM. The TGI [29] was greater than 10000 nM, the TGI [55] was greater than 10000 nM and the TGI [56] was greater than 10000 nM. The TGI [30] was greater than 10000 nM, the TGI [57] was greater than 10000 nM and the TGI [31] was greater than 10000 nM. It also gave a TGI [32] greater than 10000 nM, a TGI [33] greater than 10000 nM and a TGI [34] greater than 10000 nM. For the same molecule, the TGI [58] was greater than 10000 nM, the TGI [35] was greater than 10000 nM and the TGI [36] was greater than 10000 nM. It also gave a TGI [38] greater than 10000 nM, a TGI [39] greater than 10000 nM and a TGI [40] greater than 10000 nM. The TGI [41] was greater than 10000 nM, the TGI [59] was greater than 10000 nM and the TGI [42] was greater than 10000 nM. For the same molecule, the TGI [43] was greater than 10000 nM, the TGI [44] was greater than 10000 nM and the TGI [45] was greater than 10000 nM. The TGI [46] was greater than 10000 nM.
